From patent US7018641B1, “Materials and methods for the control of plant pathogens” (priority 2000, dated 2006)

What was measured:
Ralstonia solanacearum [1] = assay type: cell-based
Ralstonia solanacearum [2] = assay type: cell-based; remark: listed apart in the source

Structure (SMILES)	reduction of population of Ralstonia solanacearum (Ralstonia solanacearum [1]; compared to untreated control)	volatile bactericidal activity (Ralstonia solanacearum [1]; in words)	inhibition of the development of R. solanacearum colonies (Ralstonia solanacearum [2]; 100 μg/ml concentration, FIG. 2)	efficacy against Rs (Ralstonia solanacearum [2]; tested in vitro and in greenhouse, vapor effect for the oils)
CC(C)=CCC/C(C)=C/CO [Geraniol, geraniol]	89.5%	volatile bactericidal activity	–	–
Cc1ccc(C(C)C)c(O)c1 [Thymol, thymol]	–	–	entirely inhibited	effective
